The values that follow come from ChEMBL document CHEMBL5385907, “Proline-Hinged α-Helical Peptides Sensitize Gram-Positive Antibiotics, Expanding Their Physicochemical Properties to Be Used as Gram-Negative Antibiotics” (J Med Chem, 2024).

In data set [1] the test system is Acinetobacter baumannii. Briefly: Antibacterial activity against Acinetobacter baumannii ATCC 17978 assessed as inhibition of bacterial growth incubated for 18 hrs by two fold serial dilution assay. Type of data set: functional.
Data set [2] can be described thus: Hemolytic activity in human blood assessed as hemolysis incubated for 6 hrs by microplate reader analysis. Format: toxicity, tissue-based.
Data set [3] is described as follows: Hydrophobicity of the compound assessed as retention time by reversed-phase HPLC analysis. Format: physicochemical.
For data set [4], the system named is Lipopolysaccharide (LPS). The data set is described as follows: Displacement of BODIPY-TR-cadaverine from Escherichia coli O128:B12 LPS assessed as effective dose incubated for 1 hr by fluorescence microplate reader assay.
Data set [5] deals with Escherichia coli. Briefly: Antibacterial activity against Escherichia coli ATCC 25922 assessed as inhibition of bacterial growth incubated for 18 hrs by two fold serial dilution assay. Format: functional.
The test system of data set [6] is Klebsiella pneumoniae. The data set is described as follows: Antibacterial activity against Klebsiella pneumoniae ATCC 700603 assessed as inhibition of bacterial growth incubated for 18 hrs by two fold serial dilution assay. Type of data set: functional.
Data set [7] relates to Klebsiella pneumoniae. Briefly: Potentiation of erythromycin induced antibacterial activity against Klebsiella pneumoniae ATCC 700603 assessed as decrease in bacterial growth at 0.4 uM incubated for 18 hrs in presence of erythromycin by two fold serial dilution assay. Format: functional, organism-based.
The subject of data set [8] is Klebsiella pneumoniae. The data set is described as follows: Potentiation of fusidic acid induced antibacterial activity against Klebsiella pneumoniae ATCC 700603 assessed as decrease in bacterial growth at 0.4 uM incubated for 18 hrs in presence of fusidic acid by two fold serial dilution assay. Type of data set: functional, organism-based.
Data set [9] concerns Acinetobacter baumannii. The data set is described as follows: Potentiation of novobiocin induced antibacterial activity against Acinetobacter baumannii ATCC 17978 assessed as decrease in bacterial growth at 0.4 uM incubated for 18 hrs in presence of novobiocin by two fold serial dilution assay. Type of data set: functional, organism-based.
Data set [10] deals with Escherichia coli. The data set is described as follows: Potentiation of erythromycin induced antibacterial activity against Escherichia coli ATCC 25922 assessed as decrease in bacterial growth at 0.4 uM incubated for 18 hrs in presence of erythromycin by two fold serial dilution assay. Type of data set: functional, organism-based.
In data set [11] the test system is Acinetobacter baumannii. The data set is described as follows: Potentiation of fusidic acid induced antibacterial activity against Acinetobacter baumannii ATCC 17978 assessed as decrease in bacterial growth at 0.4 uM incubated for 18 hrs in presence of fusidic acid by two fold serial dilution assay. Format: functional, organism-based.
Data set [12] deals with Escherichia coli. Briefly: Potentiation of novobiocin induced antibacterial activity against Escherichia coli ATCC 25922 assessed as decrease in bacterial growth at 0.4 uM incubated for 18 hrs in presence of novobiocin by two fold serial dilution assay. Format: functional, organism-based.
In data set [13] the test system is Acinetobacter baumannii. Briefly: Potentiation of erythromycin induced antibacterial activity against Acinetobacter baumannii ATCC 17978 assessed as decrease in bacterial growth at 0.4 uM incubated for 18 hrs in presence of erythromycin by two fold serial dilution assay. Format: functional, organism-based.
Data set [14] relates to Escherichia coli. The data set is described as follows: Potentiation of fusidic acid induced antibacterial activity against Escherichia coli ATCC 25922 assessed as decrease in bacterial growth at 0.4 uM incubated for 18 hrs in presence of fusidic acid by two fold serial dilution assay. Type of data set: functional, organism-based.
Data set [15] deals with Klebsiella pneumoniae. The data set is described as follows: Potentiation of novobiocin induced antibacterial activity against Klebsiella pneumoniae ATCC 700603 assessed as decrease in bacterial growth at 0.4 uM incubated for 18 hrs in presence of novobiocin by two fold serial dilution assay. Type of data set: functional, organism-based.
Data set [16] deals with Escherichia coli. The data set is described as follows: Potentiation of rifampicin induced antibacterial activity against NDM1-producing carbapenem-resistant Escherichia coli infected CD1 mouse sepsis model assessed as reduction in bacterial colony forming unit in blood at 10 mg/kg,SC administrated after 6 hrs of post-infection in presence of rifampicin. Type of data set: functional.

Data set [17] deals with Escherichia coli. Briefly: Potentiation of rifampicin induced antibacterial activity against NDM1-producing carbapenem-resistant Escherichia coli infected CD1 mouse sepsis model assessed as reduction in bacterial colony forming unit in blood at 10 mg/kg,SC administrated after 2 hrs of post-infection in presence of rifampicin. Format: functional.
Data set [18] in a line: Nephrotoxicity in Sprague-Dawley rat assessed as increase in blood urea nitrogen level at 30 mg/kg,iv administration for 1 hr and measured after 25 hrs. Type of data set: toxicity, organism-based. Particulars: in vivo, 26 h.
Data set [19] in a line: Nephrotoxicity in Sprague-Dawley rat assessed as increase in creatinine level at 30 mg/kg,iv administration for 1 hr and measured after 25 hrs. Format: toxicity, organism-based. Particulars: in vivo, 26 h.
Data set [20] relates to Escherichia coli. Briefly: Antibacterial activity against Escherichia coli ATCC 25922 assessed as bacterial growth inhibition incubated for 1 hr by propidium iodide staining based fluorescence assay. Format: functional, organism-based.
The subject of data set [21] is Escherichia coli. The data set is described as follows: Antibacterial activity against Escherichia coli ATCC 25922 assessed as change in membrane fluidity incubated for 1 hr by generalized polarization assay. Type of data set: functional, organism-based.

Calls of active or inactive are those of the source. The rule behind the calls is not given here. Residues, ends and D or L forms follow the SMILES beside them.

In general, MIC refers to the lowest concentration found to suppress growth. In the case of `CCCCCCCC(=O)N[C@@H](CCCCN)C(=O)N[C@@H](CCCCN)C(=O)N[C@@H](C)C(=O)N[C@@H](C)C(=O)N[C@@H](CCCCN)C(=O)N[C@@H](C)C(=O)N[C@@H](C)C(=O)N[C@@H](CCCCN)C(=O)N[C@@H](CCCCN)C(=O)N1CCC[C@H]1C(=O)N[C@@H](C)C(=O)N[C@@H](CCCCN)C(=O)N[C@@H](C)C(=O)N[C@@H](C)C(=O)N[C@@H](CCCCN)C(N)=O` (HELM PEPTIDE1{[CCCCCCCC(=O)[*:2]].K.K.A.A.K.A.A.K.K.P.A.K.A.A.K.[am]}$$$$V2.0), the MIC in [1], in data set [5] and in data set [6] was more than 80 µM in each case. Further, in data set [2], the MHC10 was more than 160 µM. Besides, the Retention_time in [3] came out at 13.7 min. Also, the ED50 entry in data set [4] was “inactive”.

Regarding Ac-KKLLALLKKPLKLLK-NH2, the result in data set [7], in [8], in data set [9], in data set [10], in data set [11] and in data set [12] was Active. Besides, the outcome in data set [13], in data set [14] and in [15] was Active. For the same compound, the MIC in data set [1] was 20 µM; in data set [5], 80 µM; in data set [6], 80 µM. Further, the MHC10 in data set [2] is more than 160 µM. In addition, the Retention_time in data set [3] stood at 19.4 min.

Regarding Ac-KKLLKLAKKPLKLLK-NH2, the outcome in [7], in data set [8], in data set [9], in data set [10], in [11] and in data set [12] was Active. For the same compound, the result in [13], in data set [14] and in [15] was Active. In addition, the MIC in [1], in data set [5] and in [6] was more than 80 µM in each case. The MHC10 in data set [2] was more than 160 µM. Moreover, the Retention_time in [3] amounted to 16.8 min.

In the case of Ac-KKLLKLLAKPLKLLK-NH2, the outcome in [7], in data set [8], in [9], in data set [10], in data set [11] and in [12] was Active. In addition, the outcome in data set [13], in data set [14] and in [15] was Active. Further, the MIC is 40 µM in [1], more than 80 µM in [5] and more than 80 µM in [6]. Further, the MHC10 in [2] is more than 160 µM. For the same compound, in data set [3], the Retention_time is recorded as 19.6 min.

Turning to Ac-KKLLKLLKAPLKLLK-NH2, the result in [7], in data set [8], in data set [9], in data set [10], in [11] and in data set [12] was Active. Moreover, the result in data set [13], in data set [14] and in data set [15] was Active. Besides, the MIC in data set [1] is 20 µM; in data set [5] it was more than 80 µM; in [6], more than 80 µM. In addition, in [2], the MHC10 is more than 160 µM. Also, the Retention_time in data set [3] is on record as 19.6 min.

Take Ac-KKLLKLLKKPAKLLK-NH2: the result in [7], in data set [8], in data set [9], in data set [10], in data set [11] and in data set [12] was Active. Moreover, the result in data set [13], in data set [14] and in data set [15] was Active. Further, the results for the MIC in data set [1], in data set [5] and in data set [6] were 80 µM, more than 80 µM and more than 80 µM, respectively. The MHC10 in data set [2] was more than 160 µM. Further, the Retention_time in data set [3] is listed as 17.1 min.

On to Ac-KKLLKLLKKPLALLK-NH2, for which the result in data set [7], in data set [8], in [9], in [10], in data set [11] and in data set [12] was Active. For the same compound, the outcome in [13], in data set [14] and in [15] was Active. The minimal inhibitory concentration (MIC) is 20 µM in data set [1], more than 80 µM in data set [5] and more than 80 µM in [6]. The MHC10 in data set [2] was more than 160 µM. Also, in data set [3], the Retention_time was 19.6 min.

As to Ac-KKLLKLLKKPLKALK-NH2, the result in data set [7], in [8], in [9], in data set [10], in [11] and in [12] was Active. Besides, the result in data set [13], in data set [14] and in data set [15] was Active. The MIC in data set [1] is 40 µM; in data set [5] it was more than 80 µM; in data set [6] it was more than 80 µM. Besides, in data set [2], the MHC10 was more than 160 µM. Further, the Retention_time in data set [3] is listed as 17.5 min.

As to Ac-KKLLKLLKKPLKLAK-NH2, the outcome in [7], in data set [8], in [9], in [10], in data set [11] and in data set [12] was Active. Moreover, the result in data set [13], in data set [14] and in data set [15] was Active. Besides, the MIC is 80 µM in data set [1], more than 80 µM in data set [5] and more than 80 µM in data set [6]. The MHC10 in data set [2] is more than 160 µM. The Retention_time in data set [3] was 17.1 min.

Take Ac-KKLLKLLKKPLKLLA-NH2: the result in [7], in [8], in data set [9], in [10], in [11] and in data set [12] was Active. The result in [13], in [14] and in [15] was Active. For the same compound, the values for the MIC in [1], in data set [5] and in data set [6] were 2.5 µM, more than 80 µM and more than 80 µM, respectively. Besides, the MHC10 in [2] was more than 160 µM. For the same compound, the Retention_time in data set [3] was found to be 18.9 min.

In the case of Ac-KLLKLLKKPLKLLK-NH2, the values for the MIC in [1], in [5] and in data set [6] were 80 µM, more than 80 µM and more than 80 µM, respectively. Further, in data set [2], the MHC10 is more than 160 µM. Moreover, the Retention_time in data set [3] is on record as 18.8 min. Further, the Activity in [16] and in [17] was more than 3 log10CFU throughout.

For the compound COLISTIN, the Activity in data set [18] stood at 30 mg/dL; in data set [19], 0.74 mg/dL.

Turning to POLYMYXIN B, the outcome in data set [20] and in data set [21] was Active.
